Laboratory results reported in patent US11850279B2, “Platforms and methods for optimizing host antigen presentation and host antitumor and antipathogen immunity” (OHIO STATE INNOVATION FOUNDATION, priority 2016, dated 2023).

Experiments:
[1] = system: CD8^+ T cells; experiment: In vivo CD8+ T cell priming by activated B cells / CABs
Excerpt: In other words, in vivo CD8^+ T cell priming is increased by antecedent treatment with Flt-3L and GM-CSF.
In vivo CD8^+ T cell priming is increased by CHX treatment of activated B cells prior to injection. CHX can boost antigen presenting capacity by increasing survival of activated B cells.
While in this model, GM-CSF/Flt-3L administration improved the efficacy of OVA-loaded B cell treatment, it is important to note that this cytokine treatment can improve the efficacy of intervention with other antigen-loaded antigen presenting cells (e.g. dendritic cell-based vaccine platforms).

[2] = system: endogenous DCs; experiment: Activation of endogenous DCs by α-GC loaded CABs; conditions: α-GC loading of CABs prior to in vivo administration
Excerpt: In addition to GM-CSF and Flt-3L, antigen presenting capabilities of activated B cells (or other professional APCs) are enhanced by in vitro loading of APCs with α-GC prior to in vivo administration.

[3] = system: NKT cells; conditions: human, in vivo; cited from earlier work
[4] = system: tumor; experiment: Anti-tumor activity of CABs (tumor size); format: in vivo, mouse
Protocol: The zero-length cross linker EDAC promotes attachment of amino-containing molecules to activated B cells, such as CABs (Chlamydia activated B cells). In the bottom panel, the antigen presenting ability of activated B cells (or other professional APCs) can be enhanced by crosslinking desired antigen (protein or peptide) with EDAC prior to in vivo administration.
“Low dose” is therefore defined as 2 μg-8 μg per kg in humans for Flt-3L, and 0.5 μg-2 μg per kg in humans for GM-CSF. “High dose” is defined as any amount above 8 μg/kg of Flt-3L and above 2 μg/kg of GM-CSF.

[5] = system: tumor; conditions: cited from earlier work

C[C@@H]1C[C@@H]([C@H](O)CC2CC(=O)NC(=O)C2)C(=O)[C@@H](C)C1 [CHX, Cycloheximide]
in vivo CD8^+ T cell priming ([1]; CHX treatment of activated B cells prior to injection): increased

CCCCCCCCCCCCCCCCCCCCCCCCCC(=O)N[C@@H](CO[C@H]1O[C@H](CO)[C@H](O)[C@H](O)[C@H]1O)[C@H](O)[C@H](O)CCCCCCCCCCCCCC [α-GC, α-Galactosylceramide]
activation of endogenous DCs [2]: dramatically increase
NKT cells in the peripheral blood of treated cancer patients [3]: fell to undetectable levels
effector function of primed antigen-specific CD8^+ T cells ([1]; α-GC-loaded CABs): enhance
tumor size ([4]; α-GC loaded activated B cells, effect dependent on NKT cells): more effectively reduce tumor size
tumor growth [5]: inhibit tumor growth

CCN=C=NCCCN(C)C [EDAC, 1-ethyl 1-3-(3-dimethylaminopropyl)-carbodiimide]
antitumor therapeutic activity ([4]; peptide chemically conjugated to CABs using EDAC vs simple peptide pulsing/loading): increases antitumor therapeutic activity
